# Reference: the supplement of paper PMC4862054
# Tests used:
# [1] = system: CAL-148; assay: drug sensitivity score (DSS), CellTiter-Glo (DSS (AUC-based score)); higher = stronger drug effect (viability inhibition or cytotoxicity); extreme values may be limits of the assay; conditions: incubation time: 72 h
# How it was run: (§1)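 Breast cancer cell lines, seeded as 20 µl suspension, were incubated 72 h with compound in 384-well plates at 5 concentrations in 10-fold steps over a 10,000-fold range set for each compound. Fluorescence from CellTox Green was read at 485/520 nm before CellTiter-Glo luminescence, which was read after 10 min at room temperature. Every plate was normalised to 0.1 % DMSO and a positive kill control, and the drug sensitivity score was taken from the area under the fitted dose-response curve.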
# [2] = system: SK-BR-3; assay: as above; conditions: incubation time: 72 h
# How it was run: as §1
# [3] = system: MDA-MB-468; assay: as above; conditions: incubation time: 72 h
# How it was run: as §1
# [4] = system: HDQ-P1; assay: as above; conditions: incubation time: 72 h
# How it was run: as §1
# [5] = system: MCF-10A; assay: as above; conditions: incubation time: 72 h
# How it was run: as §1
# [6] = system: CAL-85-1; assay: as above; conditions: incubation time: 72 h
# How it was run: as §1
# [7] = system: BT-549; assay: as above; conditions: incubation time: 72 h
# How it was run: as §1
# [8] = system: BT-474; assay: as above; conditions: incubation time: 72 h
# How it was run: as §1
# [9] = system: CAL-51; assay: normalised viability (% of control), CellTiter-Blue; higher = more viable cells (about 100 = DMSO control); conditions: 30 nM; incubation time: 72 h
# How it was run: (§2)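 Plates were quality-checked by Z'-factor and normalised to vehicle (100) and a positive kill control (0). The underlying assay incubated breast cancer cell lines for 72 h on 384-well plates with compound, then added 2.5 µl CellTiter-Blue for 2 h at 37 °C and read at 560/590 nm. The value is normalised viability at a single listed concentration of the series.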
# [10] = system: CAL-148; assay: as above; conditions: 30 nM; incubation time: 72 h
# How it was run: as §2
# [11] = system: SK-BR-3; assay: as above; conditions: 1000 nM; incubation time: 72 h
# How it was run: as §2
# [12] = system: HCC1143; assay: as above; conditions: 1000 nM; incubation time: 72 h
# How it was run: as §2
# [13] = system: CAL-120; assay: as above; conditions: 1000 nM; incubation time: 72 h
# How it was run: as §2
# [14] = system: MDA-MB-468; assay: as above; conditions: 1000 nM; incubation time: 72 h
# How it was run: as §2
# [15] = system: MDA-MB-436; assay: as above; conditions: 1000 nM; incubation time: 72 h
# How it was run: as §2
# [16] = system: HCC1937; assay: as above; conditions: 1000 nM; incubation time: 72 h
# How it was run: as §2
# [17] = system: Hs578T; assay: as above; conditions: 1000 nM; incubation time: 72 h
# How it was run: as §2
# [18] = system: MDA-MB-453; assay: as above; conditions: 30 nM; incubation time: 72 h
# How it was run: as §2
# [19] = system: BT-549; assay: as above; conditions: 1000 nM; incubation time: 72 h
# How it was run: as §2
# [20] = system: HCC1599; assay: as above; conditions: 1000 nM; incubation time: 72 h
# How it was run: as §2
# [21] = system: MFM-223; assay: as above; conditions: 1000 nM; incubation time: 72 h
# How it was run: as §2
# [22] = system: BT-474; assay: as above; conditions: 1000 nM; incubation time: 72 h
# How it was run: as §2
# [23] = system: CAL-51; conditions: 72 h
# How it was run: (§3)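 For viability and cell death testing, 384-well plates carried compound at 5 concentrations in 10-fold steps over a compound-specific 10,000-fold range, and breast cancer cell lines were seeded in 20 µl suspension. After 72 h incubation, cell death was read by CellTox Green fluorescence (485/520 nm) before viability was read by CellTiter-Glo luminescence. EC50 was fitted from the dose-response curves and censored at the top concentration. Normalisation on each plate was to 0.1 % DMSO and a positive kill control.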
# [24] = system: SK-BR-3; conditions: 72 h
# How it was run: as §3
# [25] = system: CAL-120; conditions: 72 h
# How it was run: as §3
# [26] = system: MDA-MB-468; conditions: 72 h
# How it was run: as §3
# [27] = system: MDA-MB-436; conditions: 72 h
# How it was run: as §3
# [28] = system: HCC1937; conditions: 72 h
# How it was run: as §3
# [29] = system: MCF-10A; conditions: 72 h
# How it was run: as §3
# [30] = system: Hs578T; conditions: 72 h
# How it was run: as §3
# [31] = system: CAL-85-1; conditions: 72 h
# How it was run: as §3
# [32] = system: MDA-MB-453; conditions: 72 h
# How it was run: as §3
# [33] = system: BT-549; conditions: 72 h
# How it was run: as §3
# [34] = system: BT-474; conditions: 72 h
# How it was run: as §3
# [35] = system: MDA-MB-231; conditions: 72 h
# How it was run: as §3
SMILES,drug sensitivity score [1],drug sensitivity score [2],drug sensitivity score [3],drug sensitivity score [4],drug sensitivity score [5],drug sensitivity score [6],drug sensitivity score [7],drug sensitivity score [8],normalised viability [9],normalised viability [10],normalised viability [11],normalised viability [12],normalised viability [13],normalised viability [14],normalised viability [15],normalised viability [16],normalised viability [17],normalised viability [18],normalised viability [19],normalised viability [20],normalised viability [21],normalised viability [22],"EC50, CellTiter-Glo [23]","EC50, CellTiter-Glo [24]","EC50, CellTiter-Glo [25]","EC50, CellTiter-Glo [26]","EC50, CellTiter-Glo [27]","EC50, CellTiter-Glo [28]","EC50, CellTiter-Glo [29]","EC50, CellTiter-Glo [30]","EC50, CellTiter-Glo [31]","EC50, CellTiter-Glo [32]","EC50, CellTiter-Glo [33]","EC50, CellTiter-Glo [34]","EC50, CellTiter-Glo [35]"
Cn1cncc1[C@@](N)(c1ccc(Cl)cc1)c1ccc2c(c1)c(-c1cccc(Cl)c1)cc(=O)n2C [Tipifarnib],7.28,11.9,7.6,7.3,2.13,1.05,5.49,4.08,95.5%,74.1%,66.1%,59.1%,47.4%,95.5%,82.9%,43.6%,69.2%,82.2%,75.8%,62.2%,67.7%,84.4%,0.0825 µM,0.414 µM,1.37 µM,3.33 µM,0.607 µM,0.126 µM,0.237 µM,7.87 µM,9.99 µM,0.00961 µM,5.42 µM,6.9 µM,–
CCCCCCCCc1ccc(CCC(N)(CO)CO)cc1 [Fingolimod],1.1,5.36,5.78,2.05,5.32,5.32,3.92,6.1,111%,84%,108%,106%,88.5%,105%,81.4%,95.4%,100%,100%,88.7%,113%,106%,113%,2.04 µM,3.33 µM,–,3.05 µM,4.81 µM,3.9 µM,3.35 µM,–,3.34 µM,3.37 µM,4.44 µM,2.87 µM,2.8 µM
COc1ccccc1S(=O)(=O)Nc1ccc2c(c1)CN(C)C(=O)N2 [PFI-1],0,0,0,0,1.98,3.01,5.52,0,–,–,–,–,–,–,–,–,–,–,–,–,–,–,6.31 µM,–,2.57 µM,–,–,–,4.16 µM,1.81 µM,8.46 µM,1.98 µM,1.35 µM,–,1.61 µM
